In experiment [1] the target is Rhodazain (Trypanosoma brucei rhodesiense, UniProt Q95PM0). The experiment is described as follows: Cysteine protease inhibition, progress curve method, rhodazain. It counts as biochemical, Trypanosoma brucei rhodesiensi. As to conditions: Rhodazain Ki (nM), 10 uM Cbz-Leu-Arg-AMC, 100 mM Na acetate pH 5.5, 5 mM cysteine.
The target in experiment [2] is T1, Leishmania B (UniProt P90627).
T1 sequence (P90627 1-340): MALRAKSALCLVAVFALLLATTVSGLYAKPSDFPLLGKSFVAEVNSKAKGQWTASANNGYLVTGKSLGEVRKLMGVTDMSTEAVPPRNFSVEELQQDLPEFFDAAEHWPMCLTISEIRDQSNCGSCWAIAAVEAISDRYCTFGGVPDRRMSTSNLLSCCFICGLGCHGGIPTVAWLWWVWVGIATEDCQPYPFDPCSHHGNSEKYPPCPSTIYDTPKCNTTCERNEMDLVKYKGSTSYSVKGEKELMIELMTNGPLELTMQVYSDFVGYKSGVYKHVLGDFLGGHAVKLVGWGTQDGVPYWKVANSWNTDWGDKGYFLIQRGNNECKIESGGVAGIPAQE
The experiment is described as follows: Cysteine protease inhibition, progress curve method, leishmania B. It counts as biochemical, Leishmania spp. Conditions: read-out: Leishmania B Ki nM; 10 uM Cbz-Phe-Arg-AMC, 100 mM Na acetate pH 5.5, 5 mM cysteine. How it is done: (§1) Standard assay conditions for the determination of kinetic constants used 10 uM fluorogenic peptide substrate, Cbz-Phe-Arg-AMC for the cysteine proteases from Leishmania spp and Schistosoma Mansoni, Cbz-Leu-Arg-AMC for the cysteine proteases from Plasmodium falciparum and Trypanosoma brucei rhodesiensi, and Ac-Lys-Glu-Lys-Leu-Arg-AMC (4 uM final substrate concentration) for the cysteine protease from Trypoanosoma cruzi, and were determined in 100 mM Na acetate at pH 5.5 containing 5 mM cysteine. Stock substrate solutions were prepared at concentrations of […] in DMSO with 10 uM (4 uM for Ac-Lys-Glu-Lys-Leu-Arg-AMC) final substrate concentration in the assays. The final DMSO concentration was 2% and the final volume was 100 uL. All assays were conducted at ambient temperature. Product progress curves were generated over 20 to 30 minutes following formation of AMC product.
(§2) Potential inhibitors were evaluated using the progress curve method. Assays were carried out in the presence of variable concentrations of test compound. Reactions were initiated by addition of enzyme to buffered solutions of inhibitor and substrate. Data analysis was conducted according to one of two procedures depending on the appearance of the progress curves in the presence of inhibitors. For those compounds whose progress curves were linear, apparent inhibition constants (Ki,app) were calculated according to equation 1 (Brandt et al., Biochemitsry, 1989, 28, 140):
(§3) v=VmA/[Ka(1+I/Ki,app)+A] (1)
(§4) Where v is the velocity of the reaction with maximal velocity Vm, A is the concentration of substrate with Michaelis constant of Ka, and I is the concentration of inhibitor.
(§5) [AMC]=vsst+(v0−vss)[1−exp (−kobst)]/kobs (2)
(§6) Where [AMC] is the concentration of product formed over time t, v0 is the initial reaction velocity and vss is the final steady state rate. Values for kobs were then analyzed as a linear function of inhibitor concentration to generate an apparent second order rate constant (kobs/inhibitor concentration or kobs/[I]) describing the time-dependent inhibition. A complete discussion of this kinetic treatment has been fully described (Morrison et al., Adv. Enzymol. Relat. Areas Mol. Biol., 1988, 61, 201).
(§7) Exemplary inhibition data for the compounds used in the present method collected in accordance with the above-described procedure are listed in Table I.

For experiment [3], the target named is Schisto B 1 (Schistosoma mansoni, UniProt P25792). The experiment is described as follows: Cysteine protease inhibition, progress curve method, schistosoma B 1. It counts as biochemical. How it is done:
as §1, §2, §3, §4, §5, §6, §7

Experiment [4] deals with Schisto B 2 (Schistosoma mansoni, UniProt Q95PM1). The experiment is described as follows: Cysteine protease inhibition, progress curve method, schistosoma B 2. It counts as biochemical. As to conditions: 10 uM Cbz-Phe-Arg-AMC, 100 mM Na acetate pH 5.5, 5 mM cysteine. On the procedure: as §1, §2, §3, §4, §5, §6, §7
Schisto B 2, sequence (Q95PM1 entry or part of it): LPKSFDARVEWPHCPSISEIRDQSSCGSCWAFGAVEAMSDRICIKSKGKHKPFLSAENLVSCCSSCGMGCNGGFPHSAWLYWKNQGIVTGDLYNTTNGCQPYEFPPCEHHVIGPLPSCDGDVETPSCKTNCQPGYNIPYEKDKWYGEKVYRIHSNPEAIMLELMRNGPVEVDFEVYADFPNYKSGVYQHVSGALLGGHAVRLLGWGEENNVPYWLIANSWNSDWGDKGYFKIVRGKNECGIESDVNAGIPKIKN
The target in experiment [5] is Cruzain (Trypanosoma cruzi, UniProt P25779). The experiment is described as follows: Cysteine protease inhibition, progress curve method, cruzain. Conditions: 4 uM Ac-Lys-Glu-Lys-Leu-Arg-AMC, 100 mM Na acetate pH 5.5, 5 mM cysteine; read-out: Cruzain Ki. It counts as biochemical. In a few lines: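 Buffer was 100 mM sodium acetate pH 5.5 with 5 mM cysteine and 2% DMSO, at ambient temperature; reactions started with enzyme, and AMC formation was followed for 20–30 min. Substrates: Leishmania and Schistosoma, 10 uM Cbz-Phe-Arg-AMC; falcipain, 10 uM Cbz-Leu-Arg-AMC; cruzain, 4 uM Ac-Lys-Glu-Lys-Leu-Arg-AMC. Linear curves gave Ki,app; curved ones gave kobs/[I].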
Cruzain, sequence (P25779 123-337): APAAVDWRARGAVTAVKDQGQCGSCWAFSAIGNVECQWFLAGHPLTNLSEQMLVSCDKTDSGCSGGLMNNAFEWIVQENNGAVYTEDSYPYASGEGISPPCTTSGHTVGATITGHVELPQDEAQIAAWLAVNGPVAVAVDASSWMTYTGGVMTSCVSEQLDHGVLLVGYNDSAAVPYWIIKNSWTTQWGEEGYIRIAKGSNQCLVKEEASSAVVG

[6] abbreviates: 10 uM Cbz-Phe-Arg-AMC, 100 mM Na acetate pH 5.5, 5 mM cysteine, read-out: Schisto B 1 Ki.

Where two headings read alike, the source gives them in different places.

Rhodazain, sequence (Q95PM0 entry or part of it): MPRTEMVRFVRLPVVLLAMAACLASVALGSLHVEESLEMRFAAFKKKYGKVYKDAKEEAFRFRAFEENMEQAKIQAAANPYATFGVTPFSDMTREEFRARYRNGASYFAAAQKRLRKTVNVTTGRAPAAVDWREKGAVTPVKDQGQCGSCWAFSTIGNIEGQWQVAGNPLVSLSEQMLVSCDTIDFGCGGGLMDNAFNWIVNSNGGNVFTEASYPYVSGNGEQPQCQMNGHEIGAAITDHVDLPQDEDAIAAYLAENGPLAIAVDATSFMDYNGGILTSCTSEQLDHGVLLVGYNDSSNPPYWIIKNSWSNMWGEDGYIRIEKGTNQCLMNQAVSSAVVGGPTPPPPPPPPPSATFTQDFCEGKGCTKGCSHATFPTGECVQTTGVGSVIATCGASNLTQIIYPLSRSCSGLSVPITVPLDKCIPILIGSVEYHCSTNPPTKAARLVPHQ
Schisto B 1, sequence (P25792 89-340): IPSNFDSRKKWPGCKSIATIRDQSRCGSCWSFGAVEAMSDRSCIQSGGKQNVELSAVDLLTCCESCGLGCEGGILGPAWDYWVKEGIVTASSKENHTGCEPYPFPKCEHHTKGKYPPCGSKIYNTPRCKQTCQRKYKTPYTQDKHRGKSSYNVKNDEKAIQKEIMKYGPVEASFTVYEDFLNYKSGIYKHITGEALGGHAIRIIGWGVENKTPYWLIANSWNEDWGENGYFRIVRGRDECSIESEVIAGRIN

As to `O=C(N[C@@H](Cc1ccc2ccccc2c1)C(=O)NC1CCCN(S(=O)(=O)c2ccccn2)CC1=O)c1cccc2cccnc12` (stereo partly drawn) [Example 174, Quinoline-8-carboxylic acid {(S)-2-naphthalen-2-yl-1-[3-oxo-1-(pyridine-2-sulfonyl)-azepan-4-ylcarbamoyl)-ethyl]-amide], the Ki is 4.7 nM in experiment [1], 1.7 nM in experiment [2], 27 nM in experiment [3] (setting [6]) and 8.3 nM in experiment [4].
The like results for `O=C(N[C@@H](Cc1ccc2ccccc2c1)C(=O)NC1CCCN(S(=O)(=O)c2ccccn2)CC1=O)c1cccc2ccccc12` (stereo partly drawn) [Example 175, Naphthalene-1-carboxylic acid {(S)-2-naphthalen-2-yl-1-[3-oxo-1-(pyridine-2-sulfonyl)-azepan-4-ylcarbamoyl)-ethyl]-amide] were, in that order, 5.6 nM, 1.7 nM, 37 nM and 21 nM.
With `CC(C)C[C@H](NC(=O)c1cc2ccccc2o1)C(=O)NC1CCCN(Cc2ccc3ccccc3n2)CC1=O` (stereo partly drawn) [Example 212, Benzofuran-2-carboxylic acid [(S)-3-methyl-1-[3-oxo-1-quinolin-2-ylmethyl-azepan-4-ylcarbamoyl]-butyl}-amide], the inhibition constant Ki in experiment [5] worked out at 7.7 nM; in experiment [2], 1.7 nM.
Turning to `CC(C)CC(NC(=O)c1cc2ccccc2o1)C(=O)NC1CC[C@@H](C)N(S(=O)(=O)c2ccccn2)CC1=O` (single isomer, unassigned) [Example 182], the Ki in experiment [1] is 1.1 nM; in experiment [2], 4.3 nM; in experiment [3] (setting [6]), 61 nM; in experiment [4], 45 nM.
For `CC(C)C[C@H](NC(=O)c1cc2ccccc2s1)C(=O)NC1CCCN(Cc2ccc3ccccc3n2)CC1=O` (stereo partly drawn) [Example 214, Benzo[b]thiophene-2-carboxylic acid {(S)-3-methyl-1-[3-oxo-1-quinolin-2-ylmethyl-azepan-4-ylcarbamoyl]-butyl}-amide], the Ki in experiment [5] amounted to 7.4 nM; in experiment [2] it was 1 nM.
For the compound `CC(C)C[C@H](NC(=O)c1cc2ccccc2s1)C(=O)N[C@H]1CCCN(S(=O)(=O)c2ccc(Cl)cc2)CC1=O` [Example 135, Benzo[b]thiophene-2-carboxylic acid-{(S)-1-[1-(4-chloro-benzenesulfonyl)-3-oxo-azepan-4-ylcarbamoyl]-3-methyl-butyl}-amide], the inhibitory constant (Ki) is 8 nM in experiment [2], 75 nM in experiment [3] (setting [6]) and 270 nM in experiment [4].
With `O=C(N[C@@H](Cc1ccc2ccccc2c1)C(=O)NC1CCCN(S(=O)(=O)c2ccccn2)CC1=O)c1cccc2ccccc12` (single isomer, unassigned) [Example 188], the Ki turned out to be 4 nM in experiment [1], 2.8 nM in experiment [2], 24 nM in experiment [3] (setting [6]) and 22 nM in experiment [4].
Consider `Cc1c(C(=O)N[C@@H](CC(C)C)C(=O)NC2CCCN(Cc3ccc4ccccc4n3)CC2=O)oc2ccccc12` (stereo partly drawn) [Example 213, 3-Methyl-benzofuran-2-carboxylic acid [(S)-3-methyl-1-[3-oxo-1-quinolin-2-ylmethyl-azepan-4-ylcarbamoyl]-butyl}-amide], for which the results for the Ki in experiment [5] and in experiment [2] were 7.1 nM and 0.77 nM, respectively.
For `COc1ccc2oc(C(=O)N[C@@H](CC(C)C)C(=O)N[C@H]3CCCN(S(=O)(=O)c4cccc(Cl)c4)CC3=O)cc2c1` [Example 89, 5-Methoxy-benzofuran-2-carboxylic acid-{(S)-1-[1-(3-chloro-benzenesulfonyl)-3-oxo-azepan-4-ylcarbamoyl]-3-methyl-butyl}-amide], the Ki in experiment [5] came out at 11 nM; in experiment [2], 24 nM; in experiment [3] (setting [6]), 34 nM; in experiment [4], 130 nM.
For the compound `O=C(N[C@@H](Cc1ccccc1)C(=O)NC1CCCN(S(=O)(=O)c2ccccn2)CC1=O)c1cccc2cccnc12` (single isomer, unassigned) [Example 189], the Ki in experiment [1] worked out at 3.1 nM; in experiment [2] it was 3.9 nM.
`COc1ccc2oc(C(=O)N[C@@H](CC(C)C)C(=O)N[C@H]3CCCN(S(=O)(=O)c4ccc(Cl)cc4)CC3=O)cc2c1` [Example 132, 5-Methoxy-benzofuran-2-carboxylic acid {(S)-1-[1-(4-chloro-benzenesulfonyl)-3-oxo-azepan-4-ylcarbamoyl]-3-methyl-butyl}-amide]: the inhibition constant Ki in experiment [2] amounted to 8.1 nM; in experiment [3] (setting [6]), 150 nM; in experiment [4], 880 nM.
Turning to `O=C(NC(Cc1ccc2ccccc2c1)C(=O)NC1CCCN(S(=O)(=O)c2ccccn2)CC1=O)c1cccc2cccnc12` [Example 187, Quinoline-8-carboxylic acid {(S)-2-naphthalen-2-yl-1-[3-oxo-1-(pyridine-2-sulfonyl)-azepan-4-ylcarbamoyl]-ethyl}-amide], the inhibitory constant (Ki) in experiment [5] came to 6.8 nM; in experiment [1], 2.5 nM; in experiment [2], 2.1 nM; in experiment [3] (setting [6]), 8.4 nM.
Regarding `CC(C)C[C@H](NC(=O)c1cc2ccccc2o1)C(=O)N[C@H]1CCCN(S(=O)(=O)c2ccc(Cl)cc2)CC1=O` [Example 131, Benzofuran-2-carboxylic acid {(S)-1-[1-(4-chloro-benzenesulfonyl)-3-oxo-azepan-4-ylcarbamoyl]-3-methyl-butyl}-amide], the Ki in experiment [2] is 11 nM; in experiment [3] (setting [6]), 75 nM; in experiment [4] it was 300 nM.
For `Cc1c(C(=O)N[C@@H](CC(C)C)C(=O)N[C@H]2CCCN(S(=O)(=O)c3cccc(Cl)c3)CC2=O)oc2ccccc12` [Example 90, 3-Methyl-benzofuran-2-carboxylic acid-{(S)-1-[1-(3-chloro-benzenesulfonyl)-3-oxo-azepan-4-ylcarbamoyl]-3-methyl-butyl}-amide], the inhibition constant Ki in experiment [2] amounted to 3.3 nM; in experiment [3] (setting [6]) it was 48 nM; in experiment [4] it was 71 nM.
`O=C(N[C@@H](Cc1ccc2ccccc2c1)C(=O)NC1CCCN(S(=O)(=O)c2ccccn2)CC1=O)c1cc2ccccc2o1` (stereo partly drawn) [Example 159, Benzofuran-2-carboxylic acid {(S)-2-naphthalen-2-yl-1-[3-oxo-1-(pyridine-2-sulfonyl)-azepan-4-ylcarbamoyl)-ethyl]-amide]: the inhibitory constant (Ki) in experiment [1] came to 3.4 nM; in experiment [2], 1.4 nM; in experiment [3], 47 nM.
Regarding `CC(C)C[C@H](NC(=O)c1cc2ccccc2s1)C(=O)N[C@@H]1CCCN(S(=O)(=O)c2ccc(F)cc2)CC1=O` [Example 108, Benzo[b]thiophene-2-carboxylic acid-{(S)-1-[1-(4-fluoro-benzenesulfonyl)-3-oxo-azepan-4-ylcarbamoyl]-3-methyl-butyl}-amide], the Ki in experiment [5] worked out at 20 nM; in experiment [2], 9.4 nM; in experiment [3] (setting [6]) it was 34 nM; in experiment [4], 110 nM.

(Values after patent US20030044399A1, “Method of treatment” (SmithKline Beecham Corporation, priority 1998, published 2003).)
